One may read the DC50 as the concentration giving 50% degradation.

From patent US20260092061A1, “COMPOUNDS FOR TARGETED PROTEIN DEGRADATION” (Amphista Therapeutics Limited, priority 2022, published 2026) come the findings set out here.

The target of assay [1] is T1, BRD9 (Homo sapiens, UniProt Q9H8M2).
T1 sequence (Q9H8M2 1-597): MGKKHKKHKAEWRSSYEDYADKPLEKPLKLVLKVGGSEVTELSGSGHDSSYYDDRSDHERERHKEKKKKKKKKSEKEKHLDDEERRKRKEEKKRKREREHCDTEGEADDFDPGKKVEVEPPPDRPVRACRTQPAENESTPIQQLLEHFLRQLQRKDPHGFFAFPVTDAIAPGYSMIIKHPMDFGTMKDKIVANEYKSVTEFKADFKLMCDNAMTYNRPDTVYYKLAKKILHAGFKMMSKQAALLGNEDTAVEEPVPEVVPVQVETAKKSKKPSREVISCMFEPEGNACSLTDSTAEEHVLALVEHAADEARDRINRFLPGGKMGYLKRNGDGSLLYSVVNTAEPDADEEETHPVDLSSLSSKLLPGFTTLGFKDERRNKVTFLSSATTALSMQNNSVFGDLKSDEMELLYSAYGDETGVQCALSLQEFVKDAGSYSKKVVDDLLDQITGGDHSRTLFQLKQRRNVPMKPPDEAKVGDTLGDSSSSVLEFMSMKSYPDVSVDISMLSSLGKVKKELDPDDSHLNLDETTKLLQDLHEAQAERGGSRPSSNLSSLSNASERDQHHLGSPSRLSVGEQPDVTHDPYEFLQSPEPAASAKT
The experiment in a line: Degradation of BRD9 (IF), immunofluorescence in MV4-11 cells, 24 hours (Assay Protocol 2). Type of assay: cell-based. More on the design: A suspension of MV4-11 cells (ATCC CRL-9591) was prepared; host or cells: MV4-11. Summed up: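 MV4-11 cells treated with compound 24 h at 37° C., then fixed, permeabilised and immunostained for BRD9 (anti-BRD9 E4Q3F, Alexa 647 secondary, Hoechst counterstain). High-content imaging quantified nuclear BRD9 signal; % BRD9 remaining normalised to DMSO and 100 nM CFT-8634 controls.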

Assay [2] addresses T1, BRD9. The experiment in a line: BRD9 degradation, HiBiT-BRD9 KI HEK293 (LgBiT) cells, NanoGlo Lytic Endpoint assay (Assay Protocol 1). Type of assay: cell-based. Particulars: BRD9 degradation; for Dmax / Dmax at 1 µM: HEK293; for Dmax at 1 µM: 1 μM compound at 6 h of treatment, read-out: Assay 1 Dmax. The method in brief:
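HiBiT-tagged BRD9 knock-in HEK293 (LgBiT) cells exposed to compounds for 6 h at 37 °C, 5% CO2. Residual BRD9 measured by HiBiT lytic luminescence. % BRD9 remaining normalised to DMSO-treated cells (high) and no-cell wells (low).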

[3] abbreviates: Assay protocol 2, BRD9 degradation, read-out: DC50.
Setting [4] is: MV4-11, Assay protocol 2, BRD9 degradation, read-out: Dmax.
Where [5] appears, read: Assay protocol 1, read-out: DC50.
The mark [6] stands for this setting: Assay protocol 1, read-out: Dmax.
Where [7] appears, read: MV4-11, 24 h, Table 2, BRD9 degradation (IF), Assay Protocol 2, MV4-11 cells, read-out: Assay 2 DCmax.
Where [8] appears, read: Table 2, BRD9 degradation (IF), Assay Protocol 2, MV4-11 cells, read-out: Assay 2 DC50.
The mark [9] stands for this setting: Table 2, Assay Protocol 1, 6 h of treatment, read-out: Assay 1 DC50.
[10] abbreviates: MV4-11, Table 4, BRD9 degradation, determined according to Assay Protocol 2, read-out: Dmax^2.
The mark [11] stands for this setting: Table 4, BRD9 degradation, determined according to Assay Protocol 2, read-out: DC50^2.
The mark [12] stands for this setting: Table 4, determined according to Assay Protocol 1, read-out: Dmax^1.
The mark [13] stands for this setting: Table 4, determined according to Assay Protocol 1, read-out: DC50^1.

In the case of `COc1cc(-c2cn(C)c(=O)c(C)c2C)cc(OC)c1CN(C)Cc1ccc2c(c1)CCN(C(=O)/C(C#N)=C/c1nc3ccccc3s1)C2C` (mixture of isomers) [Compound B21, (E/Z)-3-(benzo[d]thiazol-2-yl)-2-(6-(((2,6-dimethoxy-4-(1,4,5-trimethyl-6-oxo-1,6-dihydropyridin-3-yl)benzyl)(methyl)amino)methyl)-1-methyl-1,2,3,4-tetrahydroisoquinoline-2-carbonyl)acrylonitrile], the DC50 at BRD9 [1] (setting [3]) was below 1.25 nM; on BRD9 [2] (setting [5]) it was 1.25 to 10 nM. Moreover, the Dmax on BRD9 [1] (setting [4]) and at BRD9 [2] (setting [6]) was 40 to 70% each time.
Consider `COc1cc(-c2cn(C)c(=O)c(C)c2C)cc(OC)c1CN1CC2CC1CN2Cc1cccc2c1CCN(C(=O)/C(C#N)=C/C(C)(C)C)C2C` (mixture of isomers) [Compound A70, (E/Z)-2-(5-((5-(2,6-dimethoxy-4-(1,4,5-trimethyl-6-oxo-1,6-dihydropyridin-3-yl)benzyl)-2,5-diazabicyclo[2.2.1]heptan-2-yl)methyl)-1-methyl-1,2,3,4-tetrahydroisoquinoline-2-carbonyl)-4,4-dimethylpent-2-enenitrile], for which the Dmax at BRD9 [1] (setting [7]) fell in the range of 70 to 75%. Further, the DC50 was below 1.25 nM on BRD9 [1] (setting [8]) and 10 to 25 nM on BRD9 [2] (setting [9]). Moreover, the Dmax at 1 µM on BRD9 [2] (Table 2, Assay Protocol 1) lay within 40 to 70%.
Turning to `COc1cc(-c2cn(C)c(=O)c(C)c2C)cc(OC)c1CN1CCC(Oc2cccc3c2CCN(C(=O)/C(C#N)=C/C(C)(C)C)C3C)CC1` (mixture of isomers) [Compound B44, (E/Z)-2-(5-((1-(2,6-dimethoxy-4-(1,4,5-trimethyl-6-oxo-1,6-dihydropyridin-3-yl)benzyl)piperidin-4-yl)oxy)-1-methyl-1,2,3,4-tetrahydroisoquinoline-2-carbonyl)-4,4-dimethylpent-2-enenitrile], the 50% degradation concentration (DC50) on BRD9 [1] (setting [3]) and at BRD9 [2] (setting [5]) was below 1.25 nM in each case. Besides, the Dmax at BRD9 [1] (setting [4]) is 40 to 70%; on BRD9 [2] (setting [6]), above 75%.
As for `COc1cc(-c2cn(C)c(=O)c(C)c2C)cc(OC)c1CN1CCN(Cc2cccc3c2CCN(C(=O)/C(C#N)=C/C24CC(C2)C4)C3C)CC1` (mixture of isomers) [Compound B45, (E/Z)-3-(bicyclo[1.1.1]pentan-1-yl)-2-(5-((4-(2,6-dimethoxy-4-(1,4,5-trimethyl-6-oxo-1,6-dihydropyridin-3-yl)benzyl)piperazin-1-yl)methyl)-1-methyl-1,2,3,4-tetrahydroisoquinoline-2-carbonyl)acrylonitrile], the half-maximal degradation concentration (DC50) on BRD9 [1] (setting [3]) and on BRD9 [2] (setting [5]) was below 1.25 nM throughout. Besides, the Dmax on BRD9 [1] (setting [4]) and on BRD9 [2] (setting [6]) was above 75% throughout.
Consider `COc1cc(-c2cn(C)c(=O)c(C)c2C)cc(OC)c1CN1CCN(Cc2cccc3c2CCN(C(=O)/C(C#N)=C/C2CC(F)(F)C2)C3C)C2(CC2)C1` (mixture of isomers) [Compound B116], for which the DC50 was below 1.25 nM at BRD9 [1] (setting [3]) and 1.25 to 10 nM on BRD9 [2] (setting [5]). For the same compound, the Dmax at BRD9 [1] (setting [4]) and at BRD9 [2] (setting [6]) was above 75% each time.
`COc1cc(-c2cn(C)c(=O)c(C)c2C)cc(OC)c1CN1CC2CC(C1)N2Cc1cccc2c1CCN(C(=O)/C(C#N)=C/c1ccnc(C)n1)C2C` (mixture of isomers) [Compound B25, (E/Z)-2-(5-((3-(2,6-dimethoxy-4-(1,4,5-trimethyl-6-oxo-1,6-dihydropyridin-3-yl)benzyl)-3,6-diazabicyclo[3.1.1]heptan-6-yl)methyl)-1-methyl-1,2,3,4-tetrahydroisoquinoline-2-carbonyl)-3-(2-methylpyrimidin-4-yl)acrylonitrile]: the half-maximal degradation concentration (DC50) at BRD9 [1] (setting [3]) and on BRD9 [2] (setting [5]) was 1.25 to 10 nM in each case. Besides, the Dmax on BRD9 [1] (setting [4]) and on BRD9 [2] (setting [6]) was above 75% in each case.
For the compound `COc1cc(-c2cn(C)c(=O)c(C)c2C)cc(OC)c1CN1CCN(C(=O)C2CC(C(C)C)CN(C(=O)/C(C#N)=C/C(C)(C)C)C2)CC1` (centres unmarked) [Compound B207], the Dmax on BRD9 [1] (setting [10]) and on BRD9 [2] (setting [12]) was above 70% throughout. Also, the DC50 at BRD9 [1] (setting [11]) and at BRD9 [2] (setting [13]) was 25 to 200 nM throughout.
Regarding `COc1cc(-c2cn(C)c(=O)c(C)c2C)cc(OC)c1CN1CCN(C(=O)[C@@H]2CN(C(=O)/C(C#N)=C/c3nccs3)C[C@H]2c2cccc(C)c2)CC1` [Compound B213], the Dmax at BRD9 [1] (setting [10]) fell in the range of 50 to 70%; at BRD9 [2] (setting [12]), 30 to 50%. Moreover, the DC50 at BRD9 [1] (setting [11]) was above 200 nM.
Consider `COc1cc(-c2cn(C)c(=O)c3cnccc23)cc(OC)c1CN1CCN(Cc2cccc3c2CCN(C(=O)/C(C#N)=C/C(C)(C)C)C3C)CC1` (mixture of isomers) [Compound A3], for which, at BRD9 [1] (setting [7]), the Dmax was in the range of 40 to 70%. Further, the 50% degradation concentration (DC50) on BRD9 [1] (setting [8]) and on BRD9 [2] (setting [9]) was 1.25 to 10 nM each time. In addition, on BRD9 [2] (Table 2, Assay Protocol 1), the Dmax at 1 µM lay within 40 to 70%.
On to `CCCC(c1ccccc1CCC(=O)N1CCN(Cc2c(OC)cc(-c3cn(C)c(=O)c(C)c3C)cc2OC)CC1)N(C)C(=O)/C(C#N)=C/c1nccs1` (mixture of isomers) [Compound B186, (E/Z)-2-cyano-N-(1-(2-(3-(4-(2,6-dimethoxy-4-(1,4,5-trimethyl-6-oxo-1,6-dihydropyridin-3-yl)benzyl)piperazin-1-yl)-3-oxopropyl)phenyl)butyl)-N-methyl-3-(thiazol-2-yl)acrylamide], for which the half-maximal degradation concentration (DC50) at BRD9 [1] (setting [3]) is below 1.25 nM; at BRD9 [2] (setting [5]), 1.25 to 10 nM. For the same compound, the Dmax at BRD9 [1] (setting [4]) and on BRD9 [2] (setting [6]) was above 75% in each case.
Take `COc1cc(-c2cn(C)c(=O)c(C)c2C)cc(OC)c1CN1CCN(C(=O)[C@@H]2CN(C(=O)/C(C#N)=C/c3nccs3)C[C@H]2c2ccccc2)CC1` [Compound B28]: the values for the Dmax at BRD9 [1] (setting [4]) and at BRD9 [2] (setting [6]) were 40 to 70% and 25 to 40%, respectively.
For `COc1cccc(/C=C(\C#N)C(=O)N2CC3CC2CN3Cc2c(OC)cc(-c3cn(C)c(=O)c(C)c3C)cc2OC)n1` (mixture of isomers) [BRD9k, (E/Z)-2-(5-(2,6-dimethoxy-4-(1,4,5-trimethyl-6-oxo-1,6-dihydropyridin-3-yl)benzyl)-2,5-diazabicyclo[2.2.1]heptane-2-carbonyl)-3-(6-methoxypyridin-2-yl)acrylonitrile], the Dmax at BRD9 [1] (setting [10]) was in the range of 50 to 70%. In addition, the DC50 at BRD9 [1] (setting [11]) and on BRD9 [2] (setting [13]) was below 25 nM each time.
Take `COc1cccc(/C=C(\C#N)C(=O)N2CCc3c(CN4CCN(Cc5c(OC)cc(-c6cn(C)c(=O)c(C)c6C)cc5OC)CC4)cccc3C2C)n1` (mixture of isomers) [Compound A67, (E/Z)-2-(5-((4-(2,6-dimethoxy-4-(1,4,5-trimethyl-6-oxo-1,6-dihydropyridin-3-yl)benzyl)piperazin-1-yl)methyl)-1-methyl-1,2,3,4-tetrahydroisoquinoline-2-carbonyl)-3-(6-methoxypyridin-2-yl)acrylonitrile]: the Dmax on BRD9 [1] (setting [7]) lay in the range of 40 to 70%. For the same compound, the Dmax at 1 µM on BRD9 [2] (Table 2, Assay Protocol 1) lay in the range of 40 to 70%. Also, the DC50 on BRD9 [2] (setting [9]) fell in the range of 1.25 to 10 nM.
Consider `COc1cc(-c2cn(C)c(=O)c(C)c2C)cc(OC)c1CN1C2CC1CN(C(=O)/C(C#N)=C/c1nccs1)C2` (mixture of isomers) [BRD9n, (E/Z)-2-(6-(2,6-dimethoxy-4-(1,4,5-trimethyl-6-oxo-1,6-dihydropyridin-3-yl)benzyl)-3,6-diazabicyclo[3.1.1]heptane-3-carbonyl)-3-(thiazol-2-yl)acrylonitrile], for which, at BRD9 [1] (setting [11]), the 50% degradation concentration (DC50) lay within 25 to 200 nM. In addition, on BRD9 [2] (setting [12]), the Dmax lay in the range of 50 to 70%.
On to `COc1cc(-c2cn(C)c(=O)c(C)c2C)cc(OC)c1CN1CCN(Cc2cccc3c2CCN(C(=O)/C(C#N)=C/C2(C(F)(F)F)CCC2)C3C)CC1` (mixture of isomers) [Compound B36, (E/Z)-2-(5-((4-(2,6-dimethoxy-4-(1,4,5-trimethyl-6-oxo-1,6-dihydropyridin-3-yl)benzyl)piperazin-1-yl)methyl)-1-methyl-1,2,3,4-tetrahydroisoquinoline-2-carbonyl)-3-(1-(trifluoromethyl)cyclobutyl)acrylonitrile], for which the DC50 on BRD9 [1] (setting [3]) was in the range of 25 to 1000 nM; at BRD9 [2] (setting [5]) it was 1.25 to 10 nM. Moreover, the Dmax at BRD9 [1] (setting [4]) and on BRD9 [2] (setting [6]) was 40 to 70% throughout.
